Reference: patent US6855843B2, “Inhibitors of α4 mediated cell adhesion” (Tanabe Seiyaku Co., Ltd., priority 1998, dated 2005)

What was measured:
[1] = target: T1, α4β7 (adhesion of RPMI cells to CS-1) (Homo sapiens, UniProt P13612+P26010); assay: RPMI-CS-1 cell adhesion assay; format: cell-based; conditions: adhesion of RPMI B-cell line (expresses α4β7) to CS-1 peptide coated microwells; read-out: RPMI-CS-1 IC50 value range
T1 construct: endogenous in cells
T1 sequence (P13612 34-1032): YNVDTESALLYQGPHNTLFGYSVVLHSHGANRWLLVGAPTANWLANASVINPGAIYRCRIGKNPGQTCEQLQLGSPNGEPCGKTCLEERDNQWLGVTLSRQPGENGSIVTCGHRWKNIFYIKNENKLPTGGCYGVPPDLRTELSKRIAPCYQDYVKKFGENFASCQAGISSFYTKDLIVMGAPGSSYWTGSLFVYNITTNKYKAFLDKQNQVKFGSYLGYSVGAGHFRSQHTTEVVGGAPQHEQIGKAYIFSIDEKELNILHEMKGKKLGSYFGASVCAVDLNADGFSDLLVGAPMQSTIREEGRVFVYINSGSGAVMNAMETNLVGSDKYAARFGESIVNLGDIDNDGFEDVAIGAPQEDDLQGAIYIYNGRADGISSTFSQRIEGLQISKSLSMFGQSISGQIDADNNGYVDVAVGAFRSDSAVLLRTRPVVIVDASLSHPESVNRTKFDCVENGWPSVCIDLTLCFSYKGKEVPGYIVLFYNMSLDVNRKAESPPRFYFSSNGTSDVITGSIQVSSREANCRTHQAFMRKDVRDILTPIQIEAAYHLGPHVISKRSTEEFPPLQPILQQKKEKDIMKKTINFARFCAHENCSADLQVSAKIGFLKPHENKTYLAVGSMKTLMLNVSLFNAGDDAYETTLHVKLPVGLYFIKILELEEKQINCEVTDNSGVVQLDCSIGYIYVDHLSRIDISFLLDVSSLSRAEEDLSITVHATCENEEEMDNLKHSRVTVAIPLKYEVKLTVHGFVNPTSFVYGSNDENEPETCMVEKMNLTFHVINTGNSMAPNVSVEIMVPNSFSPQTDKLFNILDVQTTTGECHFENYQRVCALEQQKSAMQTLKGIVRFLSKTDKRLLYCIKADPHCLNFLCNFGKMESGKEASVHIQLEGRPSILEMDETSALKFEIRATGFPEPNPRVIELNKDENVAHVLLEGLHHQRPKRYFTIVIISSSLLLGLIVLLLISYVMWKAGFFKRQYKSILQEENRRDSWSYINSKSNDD
T1 sequence (P26010 20-798): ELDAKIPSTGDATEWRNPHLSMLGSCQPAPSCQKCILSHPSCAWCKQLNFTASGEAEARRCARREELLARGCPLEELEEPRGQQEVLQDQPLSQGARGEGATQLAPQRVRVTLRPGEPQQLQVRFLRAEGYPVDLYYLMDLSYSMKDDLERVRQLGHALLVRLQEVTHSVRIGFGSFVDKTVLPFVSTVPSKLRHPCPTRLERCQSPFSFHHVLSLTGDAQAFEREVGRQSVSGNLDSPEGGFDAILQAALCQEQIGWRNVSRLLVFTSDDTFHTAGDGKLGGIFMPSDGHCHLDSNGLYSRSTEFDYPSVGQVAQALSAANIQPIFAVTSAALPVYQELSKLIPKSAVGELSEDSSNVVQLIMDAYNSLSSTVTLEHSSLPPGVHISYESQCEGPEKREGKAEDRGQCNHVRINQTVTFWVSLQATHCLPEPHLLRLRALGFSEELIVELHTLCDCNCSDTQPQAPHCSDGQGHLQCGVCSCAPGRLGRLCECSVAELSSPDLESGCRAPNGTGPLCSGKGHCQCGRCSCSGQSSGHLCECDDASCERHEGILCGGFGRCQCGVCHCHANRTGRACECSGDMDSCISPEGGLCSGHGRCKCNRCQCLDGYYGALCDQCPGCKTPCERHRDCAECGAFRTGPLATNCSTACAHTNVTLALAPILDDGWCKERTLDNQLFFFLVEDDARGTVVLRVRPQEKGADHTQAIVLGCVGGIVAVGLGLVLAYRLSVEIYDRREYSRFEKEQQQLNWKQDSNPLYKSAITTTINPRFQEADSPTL

SMILES	IC50 [1]	melting point
COc1cc(C(=O)NCc2ccccc2)cc(OC)c1-c1ccc(C[C@H](NC(=O)c2c(Cl)cccc2Cl)C(=O)O)cc1 [Example 167]	< 300 nM	153 to 154 °C
COc1cc(C(=O)NC(C)C)cc(OC)c1-c1ccc(C[C@H](NC(=O)c2c(Cl)cccc2Cl)C(=O)O)cc1 [Example 168]	< 300 nM	261 to 262 °C
COc1cc(C(=O)NCCCO)cc(OC)c1-c1ccc(C[C@H](NC(=O)c2c(Cl)cccc2Cl)C(=O)O)cc1 [Example 169]	< 300 nM	222 to 223 °C
COc1cc(C(=O)NCCN2CCOCC2)cc(OC)c1-c1ccc(C[C@H](NC(=O)c2c(Cl)cccc2Cl)C(=O)O)cc1 [Example 171]	< 300 nM	268 to 269 °C
COc1cc(C(=O)NS(C)(=O)=O)cc(OC)c1-c1ccc(C[C@H](NC(=O)c2c(Cl)cccc2Cl)C(=O)O)cc1 [Example 173, N-(2,6-Dichlorobenzoyl)-4-[4-(methanesulfonylamino)carbonyl-2,6-dimethoxyphenyl]-L-phenylalanine]	< 300 nM	277 to 278 °C
COCOc1ccc(OC)c(-c2ccc(C[C@H](NC(=O)c3c(Cl)cccc3Cl)C(=O)O)cc2)c1OC [Example 174, N-(2,6-Dichlorobenzoyl)-4-(2,6-dimethoxy-3-methoxymethoxyphenyl)-L-phenylalanine]	< 300 nM	156 to 157 °C
COc1ccc(O)c(OC)c1-c1ccc(C[C@H](NC(=O)c2c(Cl)cccc2Cl)C(=O)O)cc1 [Example 175, N-(2,6-Dichlorobenzoyl)-4-(2,6-dimethoxy-3-hydroxyphenyl)-L-phenylalanine]	< 300 nM	164 to 165 °C
CCNC(=S)Nc1ccc(C(=O)N[C@@H](Cc2ccc(-c3ccccc3OC)cc2)C(=O)O)c(Cl)c1 [Example 196]	< 300 nM	155 to 156 °C
COc1ccccc1-c1ccc(C[C@H](NC(=O)c2ccc(NC(=S)Nc3ccccc3)cc2Cl)C(=O)O)cc1 [Example 197]	300 to 1000 nM	145 to 146 °C
COc1ccccc1-c1ccc(C[C@H](NC(=O)c2ccc(Br)cc2Cl)C(=O)O)cc1 [Example 212]	1000 to 5000 nM	62 to 63 °C
COc1ccccc1-c1ccc(C[C@H](NC(=O)C(C)c2c(Cl)cccc2Cl)C(=O)O)cc1 (stereo partly drawn) [Example 213, N-[2-(2,6-Dichlorophenyl)propionyl]-4-(2-methoxyphenyl)-L-phenylalanine]	1000 to 5000 nM	109 to 110 °C
CC(=O)c1ccc(-c2ccc(C[C@H](NC(=O)c3c(Cl)cccc3Cl)C(=O)O)cc2)s1 [Example 215, N-(2,6-Dichlorobenzoyl)-4-(5-acetyl-2-thienyl)-L-phenylalanine]	300 to 1000 nM	194 to 195 °C
COc1cccc(OCCO)c1-c1ccc(C[C@H](NC(=O)c2c(Cl)cccc2Cl)C(=O)O)cc1 [Example 227, N-(2,6-Dichlorobenzoyl)-4-[6-methoxy-2-(2-hydroxyethoxy)phenyl]-L-phenylalanine]	< 300 nM	158 to 159 °C
COc1cccc(OCCF)c1-c1ccc(C[C@H](NC(=O)c2c(Cl)cccc2Cl)C(=O)O)cc1 [Example 228, N-(2,6-Dichlorobenzoyl)-4-[6-methoxy-2-(2-fluoroethoxy)phenyl]-L-phenylalanine]	< 300 nM	206 to 207 °C

The next lines start with the values.

IC50 [1]	melting point	SMILES
< 300 nM	197 to 198 °C	CNC(=S)Nc1cc(OC)c(-c2ccc(C[C@H](NC(=O)c3c(Cl)cccc3Cl)C(=O)O)cc2)c(OC)c1 [Example 162, N-(2,6-Dichlorobenzoyl)-4-[2,6-dimethoxy-4-(3-methylthioureido)phenyl]-L-phenylalanine]
< 300 nM	154 to 155 °C	COc1cc(NS(C)(=O)=O)cc(OC)c1-c1ccc(C[C@H](NC(=O)c2c(Cl)cccc2Cl)C(=O)O)cc1 [Example 163, N-(2,6-Dichlorobenzoyl)-4-[2,6-dimethoxy-4-[(methylsulfonyl)amino]phenyl]-L-phenylalanine]
< 300 nM	251 to 252 °C	CNC(=O)c1cc(OC)c(-c2ccc(C[C@H](NC(=O)c3c(Cl)cccc3Cl)C(=O)O)cc2)c(OC)c1 [Example 165, N-(2,6-Dichlorobenzoyl)-4-(4-methylcarbamoyl-2,6-dimethoxyphenyl)-L-phenylalanine]
< 300 nM	219 to 221 °C	COc1cc(C(=O)N(C)C)cc(OC)c1-c1ccc(C[C@H](NC(=O)c2c(Cl)cccc2Cl)C(=O)O)cc1 [Example 166]
< 300 nM	277 to 278 °C	COc1cc(C(=O)O)cc(OC)c1-c1ccc(C[C@H](NC(=O)c2c(Cl)cccc2Cl)C(=O)O)cc1 [Example 172, N-(2,6-Dichlorobenzoyl)-4-(4-carboxy-2,6-dimethoxyphenyl)-L-phenylalanine]
< 300 nM	141 to 142 °C	COc1cccc(OC)c1-c1ccc(C[C@H](NC(=O)c2c(Cl)cc(NS(=O)(=O)c3cccs3)cc2Cl)C(=O)O)cc1 [Example 193, N-[2,6-Dichloro-4-[(2-thienylsulfonyl)amino]benzoyl]-4-(2,6-dimethoxyphenyl)-L-phenylalanine]
< 300 nM	227 to 229 °C	COc1cccc(OC)c1-c1ccc(C[C@H](NC(=O)c2c(Cl)cc(NC(C)=O)cc2Cl)C(=O)O)cc1 [Example 199]
< 300 nM	185 to 187 °C	CCOC(=O)Nc1cc(Cl)c(C(=O)N[C@@H](Cc2ccc(-c3c(OC)cccc3OC)cc2)C(=O)O)c(Cl)c1 [Example 200]
< 300 nM	147 to 149 °C	COC(=O)Nc1cc(Cl)c(C(=O)N[C@@H](Cc2ccc(-c3c(OC)cccc3OC)cc2)C(=O)O)c(Cl)c1 [Example 201]
< 300 nM	182 to 184 °C	COc1cccc(OC)c1-c1ccc(C[C@H](NC(=O)c2c(Cl)cc(NC(=O)Nc3ccccc3C)cc2Cl)C(=O)O)cc1 [Example 202]
< 300 nM	110 to 112 °C	CNC(=O)Nc1cc(Cl)c(C(=O)N[C@@H](Cc2ccc(-c3c(OC)cccc3OC)cc2)C(=O)O)c(Cl)c1 [Example 203]
< 300 nM	220 to 221 °C	COc1cccc(OC)c1-c1ccc(C[C@H](NC(=O)c2c(Cl)cc(NC(N)=O)cc2Cl)C(=O)O)cc1 [Example 204]
< 300 nM	217 to 219 °C	COc1ccc(C(N)=O)c(OC)c1-c1ccc(C[C@H](NC(=O)c2c(Cl)cc(NC(N)=O)cc2Cl)C(=O)O)cc1 [Example 205, N-(4-Ureido-2,6-dichlorobenzoyl)-4-(3-carbamoyl-2,6-dimethoxyphenyl)-L-phenylalanine]
< 300 nM	221 to 222 °C (dec.)	COc1cccc(OC)c1-c1ccc(C[C@H](NC(=O)c2c(Cl)cc(N)cc2Cl)C(=O)O)cc1 [Example 206, N-(4-Amino-2,6-dichlorobenzoyl)-4-(2,6-dimethoxyphenyl)-L-phenylalanine]
< 300 nM	184 to 185 °C	COc1cccc(OC)c1-c1ccc(C[C@H](NC(=O)c2c(Cl)cc(Br)cc2Cl)C(=O)O)cc1 [Example 207]
< 300 nM	252 to 253 °C	COc1cccc(OC)c1-c1ccc(C[C@H](NC(=O)c2c(Cl)cc(O)cc2Cl)C(=O)O)cc1 [Example 208]
